Values quoted from earlier work as cited in US8173361B2, “Method of determining metabolism of a test agent” (The General Hospital Corporation, priority 2003, dated 2012).

Conditions: treatment of chronic hepatitis B; clinical tests suspended

O=c1[nH]c(=O)n([C@@H]2O[C@H](CO)[C@@H](O)[C@@H]2F)cc1I [fialuridine]
drug-related toxicity in clinical tests: drug-related liver failure leading to death in some patients
